Molecular target: Kappa-type opioid receptor (Homo sapiens, UniProt P41145)
Assay: DRUGMATRIX: Opiate kappa (OP2, KOP) radioligand binding (ligand: [3H] Diprenorphine)
Assay type: cell membranes, HEK293, Membrane
Conditions: hek293; Not Active = under 50% inhibition at 10 µM

Kappa-type opioid receptor, sequence (P41145 whole entry): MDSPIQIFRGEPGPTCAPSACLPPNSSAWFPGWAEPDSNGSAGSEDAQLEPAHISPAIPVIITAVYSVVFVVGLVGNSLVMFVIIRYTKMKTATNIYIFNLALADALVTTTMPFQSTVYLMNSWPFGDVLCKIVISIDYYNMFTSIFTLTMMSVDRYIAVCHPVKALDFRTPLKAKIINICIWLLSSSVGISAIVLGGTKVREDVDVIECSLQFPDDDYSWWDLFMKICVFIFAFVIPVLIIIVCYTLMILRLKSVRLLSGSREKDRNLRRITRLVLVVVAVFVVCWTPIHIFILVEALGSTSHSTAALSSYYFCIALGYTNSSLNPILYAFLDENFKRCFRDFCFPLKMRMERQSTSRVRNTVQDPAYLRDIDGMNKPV

Compound | IC50
O=C(c1ccccc1C(F)(F)F)N1CCC(Cc2ccccc2)CC1 | Not Active
Nc1ccc2c3c(cccc13)C(=O)NC2=O | Not Active
O=c1cnn([C@@H]2O[C@H](CO)[C@@H](O)[C@H]2O)c(=O)[nH]1 [6-AZAURIDINE] | Not Active
NCCCC(O)(P(=O)(O)O)P(=O)(O)O [ALENDRONIC ACID] | Not Active
CN1[C@@H]2CC[C@H]1C[C@@H](OC(=O)C(CO)c1ccccc1)C2 (stereo not given in full) [ATROPINE] | Not Active
Cc1cc2c(OCC(CNC(C)(C)C)OC(=O)c3ccccc3)cccc2[nH]1 (stereo not given) [BOPINDOLOL] | Not Active
COc1cc([C@@H]2c3cc4c(cc3[C@@H](O[C@@H]3O[C@@H]5CO[C@@H](C)O[C@H]5[C@H](O)[C@H]3O)[C@H]3COC(=O)[C@H]23)OCO4)cc(OC)c1O [ETOPOSIDE] | Not Active
COc1ccc2c3c1O[C@H]1C[C@@H](O)C=C[C@@]31CCN(C)C2 [GALANTAMINE] | Not Active
Oc1c(Cl)cc(Cl)c(Cl)c1Cc1c(O)c(Cl)cc(Cl)c1Cl [HEXACHLOROPHENE] | Not Active
CC(=O)[C@@]1(O)CC[C@H]2[C@@H]3CCC4=CC(=O)CC[C@]4(C)[C@H]3CC[C@@]21C [HYDROXYPROGESTERONE] | Not Active
COC1=C(OC)C(=O)C(CCCCCCCCCCO)=C(C)C1=O [IDEBENONE] | Not Active

Molecular target: Cytochrome P450 2D6 (Homo sapiens, UniProt P10635); further: in other assays of this panel Not Active means under 50% inhibition at 10 µM
Sequence (P10635 whole entry): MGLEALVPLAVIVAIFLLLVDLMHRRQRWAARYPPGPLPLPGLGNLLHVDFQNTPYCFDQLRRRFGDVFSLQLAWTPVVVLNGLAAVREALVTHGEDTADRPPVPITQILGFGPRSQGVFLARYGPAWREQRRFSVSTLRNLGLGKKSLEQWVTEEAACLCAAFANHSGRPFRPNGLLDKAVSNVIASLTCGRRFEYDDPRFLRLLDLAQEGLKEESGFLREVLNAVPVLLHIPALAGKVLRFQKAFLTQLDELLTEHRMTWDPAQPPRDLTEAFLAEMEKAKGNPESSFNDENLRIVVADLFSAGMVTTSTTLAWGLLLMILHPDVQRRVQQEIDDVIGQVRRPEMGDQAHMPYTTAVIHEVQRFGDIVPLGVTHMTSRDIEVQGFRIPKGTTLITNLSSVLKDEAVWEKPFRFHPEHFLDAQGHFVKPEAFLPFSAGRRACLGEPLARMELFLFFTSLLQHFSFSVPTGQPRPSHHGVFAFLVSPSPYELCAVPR
Conditions: bti-tn-5b1-4

Compound | IC50 | Ki
O=C(c1ccccc1C(F)(F)F)N1CCC(Cc2ccccc2)CC1 | Not Active | Not Active
Nc1ccc2c3c(cccc13)C(=O)NC2=O | Not Active | Not Active
O=c1cnn([C@@H]2O[C@H](CO)[C@@H](O)[C@H]2O)c(=O)[nH]1 [6-AZAURIDINE] | Not Active | Not Active
Oc1c(Cl)cc(Cl)c(Cl)c1Cc1c(O)c(Cl)cc(Cl)c1Cl [HEXACHLOROPHENE] | Not Active | Not Active

Molecular target: T1, C-C chemokine receptor type 4 (Homo sapiens, UniProt P51679); further: in other assays of this panel Not Active means under 50% inhibition at 10 µM
T1 sequence (P51679 whole entry): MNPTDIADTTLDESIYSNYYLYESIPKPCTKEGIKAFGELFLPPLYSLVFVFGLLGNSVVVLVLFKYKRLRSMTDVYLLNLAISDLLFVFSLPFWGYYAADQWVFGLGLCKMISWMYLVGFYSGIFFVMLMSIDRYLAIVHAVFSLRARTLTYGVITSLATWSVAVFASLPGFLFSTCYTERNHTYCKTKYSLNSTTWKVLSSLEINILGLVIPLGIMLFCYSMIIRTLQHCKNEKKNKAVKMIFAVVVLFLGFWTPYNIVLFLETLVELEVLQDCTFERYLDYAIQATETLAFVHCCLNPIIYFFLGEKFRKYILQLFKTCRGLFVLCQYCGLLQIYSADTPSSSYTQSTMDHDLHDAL
Assay type: cell membranes, Membrane
Conditions: chem-1

Compound | IC50
O=C(c1ccccc1C(F)(F)F)N1CCC(Cc2ccccc2)CC1 | Not Active
Nc1ccc2c3c(cccc13)C(=O)NC2=O | Not Active
O=c1cnn([C@@H]2O[C@H](CO)[C@@H](O)[C@H]2O)c(=O)[nH]1 [6-AZAURIDINE] | Not Active
NCCCC(O)(P(=O)(O)O)P(=O)(O)O [ALENDRONIC ACID] | Not Active
CN1[C@@H]2CC[C@H]1C[C@@H](OC(=O)C(CO)c1ccccc1)C2 (stereo not given in full) [ATROPINE] | Not Active
Cc1cc2c(OCC(CNC(C)(C)C)OC(=O)c3ccccc3)cccc2[nH]1 (stereo not given) [BOPINDOLOL] | Not Active
COc1cc([C@@H]2c3cc4c(cc3[C@@H](O[C@@H]3O[C@@H]5CO[C@@H](C)O[C@H]5[C@H](O)[C@H]3O)[C@H]3COC(=O)[C@H]23)OCO4)cc(OC)c1O [ETOPOSIDE] | Not Active
COc1ccc2c3c1O[C@H]1C[C@@H](O)C=C[C@@]31CCN(C)C2 [GALANTAMINE] | Not Active
Oc1c(Cl)cc(Cl)c(Cl)c1Cc1c(O)c(Cl)cc(Cl)c1Cl [HEXACHLOROPHENE] | Not Active
CC(=O)[C@@]1(O)CC[C@H]2[C@@H]3CCC4=CC(=O)CC[C@]4(C)[C@H]3CC[C@@]21C [HYDROXYPROGESTERONE] | Not Active
COC1=C(OC)C(=O)C(CCCCCCCCCCO)=C(C)C1=O [IDEBENONE] | Not Active

Molecular target: 5-hydroxytryptamine receptor 2B (Homo sapiens, UniProt P41595); further: in other assays of this panel Not Active means under 50% inhibition at 10 µM
Sequence (P41595 whole entry): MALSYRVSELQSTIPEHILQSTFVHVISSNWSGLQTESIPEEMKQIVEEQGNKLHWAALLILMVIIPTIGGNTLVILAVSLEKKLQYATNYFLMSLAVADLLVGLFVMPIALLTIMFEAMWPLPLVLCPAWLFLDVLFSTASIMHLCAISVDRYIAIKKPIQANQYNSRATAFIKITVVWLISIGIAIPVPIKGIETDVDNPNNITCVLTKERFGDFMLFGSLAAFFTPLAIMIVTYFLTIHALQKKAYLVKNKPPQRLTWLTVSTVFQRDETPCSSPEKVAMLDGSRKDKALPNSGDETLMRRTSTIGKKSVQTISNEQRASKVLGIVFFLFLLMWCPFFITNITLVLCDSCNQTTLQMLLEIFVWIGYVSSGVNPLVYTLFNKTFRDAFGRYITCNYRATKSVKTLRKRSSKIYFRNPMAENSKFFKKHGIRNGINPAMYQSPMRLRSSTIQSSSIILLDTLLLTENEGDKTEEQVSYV
Assay type: cell membranes, CHO-K1, Membrane
Conditions: cho-k1

Compound | IC50
Nc1ccc2c3c(cccc13)C(=O)NC2=O | Not Active
O=c1cnn([C@@H]2O[C@H](CO)[C@@H](O)[C@H]2O)c(=O)[nH]1 [6-AZAURIDINE] | Not Active
NCCCC(O)(P(=O)(O)O)P(=O)(O)O [ALENDRONIC ACID] | Not Active
CN1[C@@H]2CC[C@H]1C[C@@H](OC(=O)C(CO)c1ccccc1)C2 (stereo not given in full) [ATROPINE] | Not Active
COc1cc([C@@H]2c3cc4c(cc3[C@@H](O[C@@H]3O[C@@H]5CO[C@@H](C)O[C@H]5[C@H](O)[C@H]3O)[C@H]3COC(=O)[C@H]23)OCO4)cc(OC)c1O [ETOPOSIDE] | Not Active
COc1ccc2c3c1O[C@H]1C[C@@H](O)C=C[C@@]31CCN(C)C2 [GALANTAMINE] | Not Active
CC(=O)[C@@]1(O)CC[C@H]2[C@@H]3CCC4=CC(=O)CC[C@]4(C)[C@H]3CC[C@@]21C [HYDROXYPROGESTERONE] | Not Active
COC1=C(OC)C(=O)C(CCCCCCCCCCO)=C(C)C1=O [IDEBENONE] | Not Active

Same assay, conditions: read-out: IC50

Compound | IC50 [nM]
O=C(c1ccccc1C(F)(F)F)N1CCC(Cc2ccccc2)CC1 | 1550
Cc1cc2c(OCC(CNC(C)(C)C)OC(=O)c3ccccc3)cccc2[nH]1 (stereo not given) [BOPINDOLOL] | 1520

Same assay, conditions: read-out: Ki

Compound | Ki [nM]
O=C(c1ccccc1C(F)(F)F)N1CCC(Cc2ccccc2)CC1 | 986
Cc1cc2c(OCC(CNC(C)(C)C)OC(=O)c3ccccc3)cccc2[nH]1 (stereo not given) [BOPINDOLOL] | 969

Molecular target: Sigma non-opioid intracellular receptor 1 (Homo sapiens, UniProt Q99720)
Sequence (Q99720 whole entry): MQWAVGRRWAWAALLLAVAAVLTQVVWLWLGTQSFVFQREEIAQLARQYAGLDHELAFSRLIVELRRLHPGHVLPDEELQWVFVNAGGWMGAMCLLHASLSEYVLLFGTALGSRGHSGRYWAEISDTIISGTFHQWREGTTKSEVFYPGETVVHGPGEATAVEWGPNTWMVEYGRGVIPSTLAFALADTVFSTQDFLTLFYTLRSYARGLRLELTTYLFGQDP
Assay: DRUGMATRIX: Sigma1 radioligand binding (ligand: [3H] Haloperidol)
Assay type: cell membranes, Jurkat, Membrane
Conditions: jurkat; Not Active = under 50% inhibition at 10 µM

Compound | IC50
O=C(c1ccccc1C(F)(F)F)N1CCC(Cc2ccccc2)CC1 | Not Active
Nc1ccc2c3c(cccc13)C(=O)NC2=O | Not Active
O=c1cnn([C@@H]2O[C@H](CO)[C@@H](O)[C@H]2O)c(=O)[nH]1 [6-AZAURIDINE] | Not Active
NCCCC(O)(P(=O)(O)O)P(=O)(O)O [ALENDRONIC ACID] | Not Active
CN1[C@@H]2CC[C@H]1C[C@@H](OC(=O)C(CO)c1ccccc1)C2 (stereo not given in full) [ATROPINE] | Not Active
Cc1cc2c(OCC(CNC(C)(C)C)OC(=O)c3ccccc3)cccc2[nH]1 (stereo not given) [BOPINDOLOL] | Not Active
COc1cc([C@@H]2c3cc4c(cc3[C@@H](O[C@@H]3O[C@@H]5CO[C@@H](C)O[C@H]5[C@H](O)[C@H]3O)[C@H]3COC(=O)[C@H]23)OCO4)cc(OC)c1O [ETOPOSIDE] | Not Active
COc1ccc2c3c1O[C@H]1C[C@@H](O)C=C[C@@]31CCN(C)C2 [GALANTAMINE] | Not Active
Oc1c(Cl)cc(Cl)c(Cl)c1Cc1c(O)c(Cl)cc(Cl)c1Cl [HEXACHLOROPHENE] | Not Active
CC(=O)[C@@]1(O)CC[C@H]2[C@@H]3CCC4=CC(=O)CC[C@]4(C)[C@H]3CC[C@@]21C [HYDROXYPROGESTERONE] | Not Active
COC1=C(OC)C(=O)C(CCCCCCCCCCO)=C(C)C1=O [IDEBENONE] | Not Active

Molecular target: T2, Neuropeptide Y receptor type 1 (Homo sapiens, UniProt P25929); further: in other assays of this panel Not Active means under 50% inhibition at 10 µM
T2 sequence (P25929 whole entry): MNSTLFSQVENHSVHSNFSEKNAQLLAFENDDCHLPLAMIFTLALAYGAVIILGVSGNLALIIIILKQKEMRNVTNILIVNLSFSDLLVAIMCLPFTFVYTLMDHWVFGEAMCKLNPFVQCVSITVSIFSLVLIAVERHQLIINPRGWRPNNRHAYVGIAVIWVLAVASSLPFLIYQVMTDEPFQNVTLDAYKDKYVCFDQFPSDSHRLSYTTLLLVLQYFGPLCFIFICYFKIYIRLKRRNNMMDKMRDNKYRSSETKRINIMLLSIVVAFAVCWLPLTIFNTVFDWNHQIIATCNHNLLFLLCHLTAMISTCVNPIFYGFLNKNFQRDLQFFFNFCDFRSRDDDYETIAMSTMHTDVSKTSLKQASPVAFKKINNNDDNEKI
Assay type: cell membranes, Membrane
Conditions: sk-n-mc

Compound | IC50
O=C(c1ccccc1C(F)(F)F)N1CCC(Cc2ccccc2)CC1 | Not Active
Nc1ccc2c3c(cccc13)C(=O)NC2=O | Not Active
O=c1cnn([C@@H]2O[C@H](CO)[C@@H](O)[C@H]2O)c(=O)[nH]1 [6-AZAURIDINE] | Not Active
NCCCC(O)(P(=O)(O)O)P(=O)(O)O [ALENDRONIC ACID] | Not Active
CN1[C@@H]2CC[C@H]1C[C@@H](OC(=O)C(CO)c1ccccc1)C2 (stereo not given in full) [ATROPINE] | Not Active
Cc1cc2c(OCC(CNC(C)(C)C)OC(=O)c3ccccc3)cccc2[nH]1 (stereo not given) [BOPINDOLOL] | Not Active
COc1cc([C@@H]2c3cc4c(cc3[C@@H](O[C@@H]3O[C@@H]5CO[C@@H](C)O[C@H]5[C@H](O)[C@H]3O)[C@H]3COC(=O)[C@H]23)OCO4)cc(OC)c1O [ETOPOSIDE] | Not Active
COc1ccc2c3c1O[C@H]1C[C@@H](O)C=C[C@@]31CCN(C)C2 [GALANTAMINE] | Not Active
Oc1c(Cl)cc(Cl)c(Cl)c1Cc1c(O)c(Cl)cc(Cl)c1Cl [HEXACHLOROPHENE] | Not Active
CC(=O)[C@@]1(O)CC[C@H]2[C@@H]3CCC4=CC(=O)CC[C@]4(C)[C@H]3CC[C@@]21C [HYDROXYPROGESTERONE] | Not Active
COC1=C(OC)C(=O)C(CCCCCCCCCCO)=C(C)C1=O [IDEBENONE] | Not Active

Molecular target: Estrogen receptor beta (Homo sapiens, UniProt Q92731); further: in other assays of this panel Not Active means under 50% inhibition at 10 µM
Sequence (Q92731 whole entry): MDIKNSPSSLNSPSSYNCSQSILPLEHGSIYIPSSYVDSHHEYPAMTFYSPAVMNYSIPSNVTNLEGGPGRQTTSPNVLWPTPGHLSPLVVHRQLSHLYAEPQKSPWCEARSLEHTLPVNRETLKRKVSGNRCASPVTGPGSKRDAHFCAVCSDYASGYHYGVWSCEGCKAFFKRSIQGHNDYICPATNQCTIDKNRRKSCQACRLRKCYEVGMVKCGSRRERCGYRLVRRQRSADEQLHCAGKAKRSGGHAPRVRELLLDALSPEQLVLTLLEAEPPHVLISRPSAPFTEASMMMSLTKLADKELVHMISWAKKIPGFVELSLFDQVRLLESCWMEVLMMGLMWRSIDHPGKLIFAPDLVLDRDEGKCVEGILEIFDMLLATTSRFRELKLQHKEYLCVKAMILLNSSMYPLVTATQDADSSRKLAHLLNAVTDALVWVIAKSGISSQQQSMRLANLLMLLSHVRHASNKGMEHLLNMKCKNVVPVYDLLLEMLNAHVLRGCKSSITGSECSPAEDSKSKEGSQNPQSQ
Conditions: sf9

Compound | IC50
O=C(c1ccccc1C(F)(F)F)N1CCC(Cc2ccccc2)CC1 | Not Active
Nc1ccc2c3c(cccc13)C(=O)NC2=O | Not Active
O=c1cnn([C@@H]2O[C@H](CO)[C@@H](O)[C@H]2O)c(=O)[nH]1 [6-AZAURIDINE] | Not Active
NCCCC(O)(P(=O)(O)O)P(=O)(O)O [ALENDRONIC ACID] | Not Active
CN1[C@@H]2CC[C@H]1C[C@@H](OC(=O)C(CO)c1ccccc1)C2 (stereo not given in full) [ATROPINE] | Not Active
Cc1cc2c(OCC(CNC(C)(C)C)OC(=O)c3ccccc3)cccc2[nH]1 (stereo not given) [BOPINDOLOL] | Not Active
COc1cc([C@@H]2c3cc4c(cc3[C@@H](O[C@@H]3O[C@@H]5CO[C@@H](C)O[C@H]5[C@H](O)[C@H]3O)[C@H]3COC(=O)[C@H]23)OCO4)cc(OC)c1O [ETOPOSIDE] | Not Active
COc1ccc2c3c1O[C@H]1C[C@@H](O)C=C[C@@]31CCN(C)C2 [GALANTAMINE] | Not Active
Oc1c(Cl)cc(Cl)c(Cl)c1Cc1c(O)c(Cl)cc(Cl)c1Cl [HEXACHLOROPHENE] | Not Active
CC(=O)[C@@]1(O)CC[C@H]2[C@@H]3CCC4=CC(=O)CC[C@]4(C)[C@H]3CC[C@@]21C [HYDROXYPROGESTERONE] | Not Active
COC1=C(OC)C(=O)C(CCCCCCCCCCO)=C(C)C1=O [IDEBENONE] | Not Active

From ChEMBL document CHEMBL1909046, “DrugMatrix in vitro pharmacology data”
